Assay: CP 55,940 levels in eight brain regions 2 h after single i.p. 3 mg/kg injection (HPLC/MS/MS)
Format: in vivo, mouse
Settings: for CP 55,940 Direction (relative to Veh) / CP 55,940 Magnitude (x Veh level): p .000
Procedure: The Bloomington Institutional Animal Care and Use Committee of Indiana University reviewed and approved the animal procedures. Female mice from the CD1 strain were utilized to match our study examining THC’s effects on the brain lipidome ([Leishman et al., 2018]). Mice were given a single i.p. injection of either 3 mg/kg CP or 1:1:18 cremophor:ethanol:saline vehicle (please refer to the section “3 mg/kg CP Is Relevant for Synthetic Cannabinoid Abuse and Has Stronger Effects on the Female Mouse Brain Lipidome During Adolescence” for a justification of dose and use of female mice). Three different age groups were given injections: PND 35 and PND 50 adolescents, and adult mice (PND 113). At least eight mice in each age group received CP and at least eight received vehicle. Matching the THC study time course ([Leishman et al., 2018]), mice were sacrificed via rapid decapitation 2 h after injection. Brains were immediately removed and flash-frozen in liquid nitrogen, and then stored at -80°C until dissections were performed. Brains were dissected on an ice-cold dissection plate into the following regions: STR, HIPP, CER, THAL, CTX, HYP, MID, and STEM. These abbreviations for these brain areas will be used exclusively when discussing the results generated by these specific dissections. Each dissected area was immediately placed in liquid nitrogen and then stored at -80°C until used for lipid extraction.
Tissue extracts were performed as previously described ([Bradshaw et al., 2006]; [Stuart et al., 2013]; [Raboune et al., 2014]; [Leishman et al., 2016a],[b], [2017], [2018]). First, samples were shock frozen in liquid nitrogen, weighed, and transferred to a centrifuge tube. The mass of the largest sample was multiplied by 50 to determine how many milliliters of HPLC-grade methanol (Fisher, Fair Lawn, NJ, United States) to add. Then, samples were spiked with 500 pmol deuterium-labeled NAGly (d8NAGly; Cayman Chemical, Ann Arbor, MI, United States). Samples were placed on ice in darkness for 2 h then individually homogenized and centrifuged at 19,000 × g for 20 min at 20°C. Supernatants were diluted with HPLC water (purified in house) to make a solution of 75% water, 25% supernatant. Lipids were partially purified on C18 solid phase extraction columns (Agilent, Palo Alto, CA, United States). A series of four elutions with 1.5 mL of 60%, 75%, 85%, and 100% methanol were collected ([Stuart et al., 2013]; [Leishman et al., 2016a],[b], [2018]).
As previously described ([Bradshaw et al., 2006]; [Tan et al., 2006]; [Smoum et al., 2010]; [Stuart et al., 2013]; [Tortoriello et al., 2013]; [Raboune et al., 2014]; [Leishman et al., 2016a],[b], [2017], [2018]), samples were analyzed using an Applied Biosystems API 3000 triple quadrupole mass spectrometer with electrospray ionization (Foster City, CA, United States). Using an Agilent XDB-C18 reversed phase analytical column and optimized mobile phase gradients, 20 μL from each elution were chromatographed. Two Shimadzu 10ADvp pumps (Columbia, MD, United States) provided the pressure for gradient elution. Mobile phase A: 20% methanol, 80% water (v/v) and 1 mM ammonium acetate (Sigma, St. Louis, MO, United States). Mobile phase B: 100% methanol, 1 mM ammonium acetate. Every method run began with 0% mobile phase B, reached 100% mobile phase B flowing at 0.2 mL/min, and gradually returned to 0% mobile phase B.
This screening library will be referred to as the lipidome when discussing data from this study. HPLC/MS/MS data were analyzed using Analyst software (Applied Biosystems) ([Bradshaw et al., 2006]; [Tan et al., 2006]; [Stuart et al., 2013]; [Tortoriello et al., 2013]; [Raboune et al., 2014]; [Leishman et al., 2016a],[b], [2017], [2018]). Chromatograms (Supplementary Figure 3) were generated by determining the retention time of analytes from the analytical column with a [M-1] or [M+1] parent peak and a fragmentation peak corresponding to the programmed values. […]

[1] = adult brainstem, 3mg/kg CP 55,940
[2] = adult cortex, 3 mg/kg CP 55,940
[3] = adult hypothalamus, 3mg/kg CP 55,940
[4] = adult midbrain, 3mg/kg CP 55,940
[5] = brainstem, PND35, 3 mg/kg CP 55,940 vs Veh

Q: With `CCCCCCC(C)(C)c1ccc([C@@H]2C[C@H](O)CC[C@H]2CCCO)c(O)c1` [CP 55,940] as the compound, how does the “brain area with highest levels of CP” value (PND 35) read?
A: CTX

Q: And the “CP 55,940 level, Mean” value (PND 35, CER, 2 hours after acute 3 mg/kg injection)?
A: 7.2155E-011

Q: What about the “CP 55,940 level, Mean” value (PND 35, CTX, 2 hours after acute 3 mg/kg injection) of the same compound?
A: 1.1107E-010

Q: And the “CP 55,940 level, Mean” value (PND 35, HIPP, 2 hours after acute 3 mg/kg injection)?
A: 9.6303E-011

Q: And the “CP 55,940 level, Mean” value (PND 35, HYP, 2 hours after acute 3 mg/kg injection)?
A: 5.3113E-011

Q: What about the “CP 55,940 level, Mean” value (PND 35, MID, 2 hours after acute 3 mg/kg injection) of the same compound?
A: 7.9142E-011

Q: What about the “CP 55,940 level, Mean” value (PND 35, STEM, 2 hours after acute 3 mg/kg injection) of the same compound?
A: 7.0414E-011

Q: And the “CP 55,940 level, Mean” value (PND 35, STR, 2 hours after acute 3 mg/kg injection)?
A: 5.7413E-011

Q: What about the “CP 55,940 level, Mean” value (PND 35, THAL, 2 hours after acute 3 mg/kg injection) of the same compound?
A: 8.8715E-011

Q: And the “CP 55,940 level, Mean” value (PND 35, Total (all brain areas), 2 hours after acute 3 mg/kg injection)?
A: 7.8540E-011

Q: What about the “CP 55,940 level, Direction (relative to Veh)” value (PND 35 hypothalamus) of the same compound?
A: ↑

Q: And the “CP 55,940 level, Magnitude (x Veh level)” value (PND 35 hypothalamus)?
A: infinite

Q: And the “CP 55,940 level: Magnitude (x Veh level)” value (PND 35 midbrain, 3mg/kg)?
A: infinite

Q: What about the “CP 55,940 level: Direction (rel to Veh)” value (PND 35 midbrain, 3mg/kg, one-way ANOVA) of the same compound?
A: ↑

Q: And the “CP 55,940 mean level” value (PND 35 striatum, 3 mg/kg i.p., 2 h)?
A: 5.74E-11 moles per gram

Q: What about the “brain area with highest levels of CP” value (PND 50) of the same compound?
A: HIPP

Q: And the “CP 55,940 level, Mean” value (PND 50, CER, 2 hours after acute 3 mg/kg injection)?
A: 7.5674E-011

Q: What about the “CP 55,940 level, Mean” value (PND 50, CTX, 2 hours after acute 3 mg/kg injection) of the same compound?
A: 8.6116E-011

Q: And the “CP 55,940 level, Mean” value (PND 50, HIPP, 2 hours after acute 3 mg/kg injection)?
A: 1.2297E-010

Q: And the “CP 55,940 level, Mean” value (PND 50, HYP, 2 hours after acute 3 mg/kg injection)?
A: 4.3769E-011

Q: What about the “CP 55,940 level, Mean” value (PND 50, MID, 2 hours after acute 3 mg/kg injection) of the same compound?
A: 1.2091E-010

Q: What about the “CP 55,940 level, Mean” value (PND 50, STEM, 2 hours after acute 3 mg/kg injection) of the same compound?
A: 8.3747E-011

Q: And the “CP 55,940 level, Mean” value (PND 50, STR, 2 hours after acute 3 mg/kg injection)?
A: 5.8704E-011

Q: And the “CP 55,940 level, Mean” value (PND 50, THAL, 2 hours after acute 3 mg/kg injection)?
A: 9.9312E-011

Q: And the “CP 55,940 level, Mean” value (PND 50, Total (all brain areas), 2 hours after acute 3 mg/kg injection)?
A: 8.6438E-011

Q: And the “brain area with highest levels of CP” value (adult)?
A: CER

Q: What about the “CP 55,940 level, Direction (relative to Veh)” value [1] of the same compound?
A: ↑

Q: And the “CP 55,940 level, Magnitude (x Veh level)” value [1]?
A: infinite

Q: What about the “CP 55,940 level, Mean” value (adult cortex, 3mg/kg CP 55,940) of the same compound?
A: 1.85E-10

Q: What about the “CP 55,940 Direction (relative to Veh)” value [2] of the same compound?
A: ↑

Q: What about the “CP 55,940 Magnitude (x Veh level)” value [2] of the same compound?
A: infinite

Q: And the “CP 55,940 level, Mean” value (adult female mice, brainstem, 3mg/kg CP 55,940)?
A: 1.52E-10

Q: What about the “CP 55,940 level, Mean” value (adult hypothalamus, 3 mg/kg CP 55,940) of the same compound?
A: 1.17E-10

Q: And the “CP 55,940 Direction (relative to Veh)” value [3]?
A: ↑

Q: What about the “CP 55,940 Magnitude (x Veh level)” value [3] of the same compound?
A: infinite

Q: What about the “CP 55,940 level, Mean” value [4] of the same compound?
A: 2.2E-10

Q: What about the “CP 55,940 Direction (relative to Veh)” value [4] of the same compound?
A: ↑

Q: What about the “CP 55,940 Magnitude (x Veh level)” value [4] of the same compound?
A: infinite

Q: And the “CP 55,940 level, Mean” value (adult, CER, 2 hours after acute 3 mg/kg injection)?
A: 2.8002E-010

Q: And the “CP 55,940 level, Mean” value (adult, CTX, 2 hours after acute 3 mg/kg injection)?
A: 1.8513E-010

Q: What about the “CP 55,940 level, Mean” value (adult, HIPP, 2 hours after acute 3 mg/kg injection) of the same compound?
A: 2.6840E-010

Q: What about the “CP 55,940 level, Mean” value (adult, HYP, 2 hours after acute 3 mg/kg injection) of the same compound?
A: 1.1726E-010

Q: And the “CP 55,940 level, Mean” value (adult, MID, 2 hours after acute 3 mg/kg injection)?
A: 2.2043E-010

Q: What about the “CP 55,940 level, Mean” value (adult, STEM, 2 hours after acute 3 mg/kg injection) of the same compound?
A: 1.5203E-010

Q: What about the “CP 55,940 level, Mean” value (adult, STR, 2 hours after acute 3 mg/kg injection) of the same compound?
A: 2.0821E-010

Q: What about the “CP 55,940 level, Mean” value (adult, THAL, 2 hours after acute 3 mg/kg injection) of the same compound?
A: 2.0002E-010

Q: What about the “CP 55,940 level, Mean” value (adult, Total (all brain areas), 2 hours after acute 3 mg/kg injection) of the same compound?
A: 2.0394E-010

Q: And the “brain area with lowest levels of CP” value (all three age groups)?
A: HYP

Q: And the “variation of CP levels among the eight brain regions” value (all three age groups)?
A: twofold to threefold

Q: What about the “CP 55,940 level, Direction (relative to Veh)” value [5] of the same compound?
A: ↑

Q: And the “CP 55,940 level, Magnitude (x Veh level)” value [5]?
A: infinite

Q: And the “CP 55,940 level” value (brainstem, PND35 female mice, 3mg/kg CP 55,940, mean)?
A: 7.04E-11

Source: publication PMC6277767, “Broad and Region-Specific Impacts of the Synthetic Cannabinoid CP 55,940 in Adolescent and Adult Female Mouse Brains” (Frontiers in Molecular Neuroscience, 2018)
